One block for each compound: values may come before it.
Tests used:
Hs-578T = assay: Antiproliferative activity against human Hs-578T cells; assay type: functional, cell-based
CWR22R = assay: Antiproliferative activity against human 22Rv1 cells; assay type: functional, cell-based
MV4-11 = assay: Antiproliferative activity against human MV4-11 cells; assay type: functional, cell-based
LNCaP = assay: Antiproliferative activity against human LNCaP cells; assay type: functional, cell-based
LNCaP C4-2B = assay: Antiproliferative activity against human LNCaP C4-2B cells; assay type: functional, cell-based
MOLM-13 = assay: Antiproliferative activity against human MOLM-13 cells; assay type: functional, cell-based
[1] = biological target: Bromodomain-containing protein 4 (Homo sapiens, UniProt O60885); assay: Binding affinity to BRD4 (unknown origin) assessed as dissociation constant
[2] = biological target: T1, Protein cereblon/Mitogen-activated protein kinase 3/Mitogen-activated protein kinase 1 (Homo sapiens, UniProt P27361+P28482+Q96SW2); assay: PROTAC activity at CRBN/ERK1/2 in human HCT-116 cells assessed as induction of ERK1/2 degradation incubated for 48 hrs by Western blot analysis; assay type: cell-based
T1 sequence (P27361 whole entry): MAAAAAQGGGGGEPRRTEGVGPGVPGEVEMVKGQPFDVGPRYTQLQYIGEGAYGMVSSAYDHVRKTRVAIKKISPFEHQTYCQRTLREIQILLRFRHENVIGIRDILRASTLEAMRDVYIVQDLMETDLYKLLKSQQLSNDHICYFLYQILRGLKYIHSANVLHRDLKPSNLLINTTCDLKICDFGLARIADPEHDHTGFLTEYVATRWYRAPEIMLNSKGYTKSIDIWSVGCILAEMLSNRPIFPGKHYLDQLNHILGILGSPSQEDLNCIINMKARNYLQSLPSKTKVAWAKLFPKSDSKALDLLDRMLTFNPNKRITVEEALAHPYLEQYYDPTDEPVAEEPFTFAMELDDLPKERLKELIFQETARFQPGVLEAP
T1 sequence (P28482 whole entry): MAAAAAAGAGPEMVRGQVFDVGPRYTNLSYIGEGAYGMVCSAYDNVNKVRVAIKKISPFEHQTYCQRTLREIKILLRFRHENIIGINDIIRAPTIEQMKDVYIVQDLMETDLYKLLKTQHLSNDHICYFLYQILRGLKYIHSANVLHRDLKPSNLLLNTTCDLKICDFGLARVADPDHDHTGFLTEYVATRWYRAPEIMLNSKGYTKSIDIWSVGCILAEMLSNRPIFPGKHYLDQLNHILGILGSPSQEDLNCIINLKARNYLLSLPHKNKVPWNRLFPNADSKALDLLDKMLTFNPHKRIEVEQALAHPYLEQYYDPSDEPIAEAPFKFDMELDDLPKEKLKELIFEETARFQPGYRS
T1 sequence (Q96SW2 whole entry): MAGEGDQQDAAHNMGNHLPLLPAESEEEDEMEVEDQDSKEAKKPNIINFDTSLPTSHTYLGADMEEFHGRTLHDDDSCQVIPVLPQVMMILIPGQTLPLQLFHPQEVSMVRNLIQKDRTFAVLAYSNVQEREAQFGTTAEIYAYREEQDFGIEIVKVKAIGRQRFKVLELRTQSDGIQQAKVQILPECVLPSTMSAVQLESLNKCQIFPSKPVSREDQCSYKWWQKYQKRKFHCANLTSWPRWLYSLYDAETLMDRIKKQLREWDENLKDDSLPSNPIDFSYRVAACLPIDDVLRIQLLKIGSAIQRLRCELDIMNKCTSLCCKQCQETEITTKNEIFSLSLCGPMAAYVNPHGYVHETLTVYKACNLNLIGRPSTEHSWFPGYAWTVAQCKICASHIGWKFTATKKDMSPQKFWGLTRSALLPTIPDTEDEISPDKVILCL

HCT-116 = assay: Antiproliferative activity against human HCT-116 cells assessed as reduction in cell viability incubated for 72 hrs by CCK-8 assay; assay type: functional, cell-based; details: HCT-116, 72 h
A-375 = assay: Antiproliferative activity against human A-375 cells assessed as reduction in cell viability incubated for 72 hrs by CCK-8 assay; assay type: functional, cell-based; details: A-375, 72 h
[3] = biological target: T1, Protein cereblon/Mitogen-activated protein kinase 3/Mitogen-activated protein kinase 1; assay: PROTAC activity at CRBN/ERK1/2 in human Calu-6 cells assessed as induction of ERK1/2 degradation incubated for 48 hrs by Western blot analysis; assay type: cell-based
Calu-6 = assay: Antiproliferative activity against human Calu-6 cells assessed as reduction in cell viability incubated for 72 hrs by CCK-8 assay; assay type: functional, cell-based; details: Calu-6, 72 h
MCF7 [4] = assay: Antiproliferative activity against human MCF7 cells assessed as reduction in cell viability incubated for 48 hrs by MTT assay; assay type: functional, cell-based; details: MCF7, 48 h
MCF7 [5] = assay: Antiproliferative activity against human MCF7 cells assessed as reduction in cell viability at 25 uM incubated for 72 hrs by resazurin based assay relative to control; assay type: functional
A549 = assay: Antiproliferative activity against human A549 cells assessed as reduction in cell viability by MTT assay; assay type: functional, cell-based
NCI-H1975 = assay: Antiproliferative activity against human NCI-H1975 cells assessed as reduction in cell viability by MTT assay; assay type: functional, cell-based
MCF7 [6] = assay: Antiproliferative activity against human MCF7 cells
T47D = assay: Antiproliferative activity against human T47D cells
[7] = biological target: Protein cereblon/Mitogen-activated protein kinase kinase kinase kinase 1 (Homo sapiens, UniProt Q92918+Q96SW2); assay: PROTAC activity at CRBN/HPK1 in human Jurkat cells assessed as degradation of HPK1 protein by Western blotting analysis; assay type: cell-based
Chain of Protein cereblon/Mitogen-activated protein kinase kinase kinase kinase 1 (Q92918 whole entry): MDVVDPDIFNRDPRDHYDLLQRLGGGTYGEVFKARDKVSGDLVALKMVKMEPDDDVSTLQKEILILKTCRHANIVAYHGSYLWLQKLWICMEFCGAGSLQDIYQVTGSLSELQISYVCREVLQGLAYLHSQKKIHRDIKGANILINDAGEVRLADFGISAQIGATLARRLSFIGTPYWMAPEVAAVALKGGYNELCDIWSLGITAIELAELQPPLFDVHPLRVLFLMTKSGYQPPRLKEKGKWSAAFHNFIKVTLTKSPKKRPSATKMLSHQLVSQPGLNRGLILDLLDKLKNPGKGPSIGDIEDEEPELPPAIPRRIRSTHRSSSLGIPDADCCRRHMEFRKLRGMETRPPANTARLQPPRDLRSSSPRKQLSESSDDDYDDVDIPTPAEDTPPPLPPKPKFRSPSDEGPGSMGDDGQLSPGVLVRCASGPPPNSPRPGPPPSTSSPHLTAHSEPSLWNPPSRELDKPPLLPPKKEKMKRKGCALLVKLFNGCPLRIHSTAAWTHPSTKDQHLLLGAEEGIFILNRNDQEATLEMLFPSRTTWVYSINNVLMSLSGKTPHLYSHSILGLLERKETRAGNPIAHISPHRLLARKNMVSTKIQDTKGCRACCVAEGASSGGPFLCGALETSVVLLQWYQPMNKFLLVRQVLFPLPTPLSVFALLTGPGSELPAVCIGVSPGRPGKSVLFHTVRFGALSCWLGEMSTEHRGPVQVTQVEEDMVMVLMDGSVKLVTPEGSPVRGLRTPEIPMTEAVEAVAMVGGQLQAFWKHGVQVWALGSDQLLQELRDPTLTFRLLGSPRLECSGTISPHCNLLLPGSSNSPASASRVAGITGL
Chain of Protein cereblon/Mitogen-activated protein kinase kinase kinase kinase 1 (Q96SW2 whole entry): as the sequence (Q96SW2 whole entry) above

[8] = biological target: Mitogen-activated protein kinase kinase kinase kinase 1 (Homo sapiens, UniProt Q92918); assay: Inhibition of HPK1 (unknown origin)
Chain of Mitogen-activated protein kinase kinase kinase kinase 1 (Q92918 whole entry): as the sequence (Q92918 whole entry) above

[9] = biological target: Platelet-derived growth factor receptor beta (Homo sapiens) (UniProt P09619); assay: Inhibition of PDGFRbeta (unknown origin) measured for 48 hrs at 10 uM relative to control
Chain of Platelet-derived growth factor receptor beta (Homo sapiens) (P09619 whole entry): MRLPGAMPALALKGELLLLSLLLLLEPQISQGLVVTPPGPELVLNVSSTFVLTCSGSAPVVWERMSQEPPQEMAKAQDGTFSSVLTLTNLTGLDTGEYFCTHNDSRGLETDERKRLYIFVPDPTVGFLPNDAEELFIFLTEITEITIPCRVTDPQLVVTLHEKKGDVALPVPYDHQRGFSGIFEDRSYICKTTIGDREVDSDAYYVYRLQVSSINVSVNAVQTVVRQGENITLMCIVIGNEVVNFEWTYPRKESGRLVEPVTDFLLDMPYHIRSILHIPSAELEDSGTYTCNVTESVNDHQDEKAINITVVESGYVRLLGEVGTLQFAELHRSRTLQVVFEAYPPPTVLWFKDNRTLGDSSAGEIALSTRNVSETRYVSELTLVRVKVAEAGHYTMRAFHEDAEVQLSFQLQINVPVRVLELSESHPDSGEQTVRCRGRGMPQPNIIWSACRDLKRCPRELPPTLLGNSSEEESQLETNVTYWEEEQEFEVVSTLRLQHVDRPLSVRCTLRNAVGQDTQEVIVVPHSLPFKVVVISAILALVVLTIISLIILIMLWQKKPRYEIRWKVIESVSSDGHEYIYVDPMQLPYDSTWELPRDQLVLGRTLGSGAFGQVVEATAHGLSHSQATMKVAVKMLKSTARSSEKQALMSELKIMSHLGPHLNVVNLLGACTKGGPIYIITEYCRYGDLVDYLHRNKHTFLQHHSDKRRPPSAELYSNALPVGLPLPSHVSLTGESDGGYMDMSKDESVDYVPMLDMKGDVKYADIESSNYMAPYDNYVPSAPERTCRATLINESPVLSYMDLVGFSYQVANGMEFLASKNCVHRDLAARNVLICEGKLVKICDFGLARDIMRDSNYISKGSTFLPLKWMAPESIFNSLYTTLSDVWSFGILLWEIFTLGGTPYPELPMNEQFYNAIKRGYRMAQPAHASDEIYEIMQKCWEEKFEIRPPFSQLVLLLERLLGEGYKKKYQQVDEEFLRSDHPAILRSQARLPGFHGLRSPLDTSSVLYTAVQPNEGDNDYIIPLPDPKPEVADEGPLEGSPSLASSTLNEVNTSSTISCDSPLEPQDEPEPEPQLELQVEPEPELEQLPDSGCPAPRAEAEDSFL

[10] = biological target: von Hippel-Lindau disease tumor suppressor/Platelet-derived growth factor receptor beta (Homo sapiens, UniProt P09619+P40337); assay: PROTAC activity at VHL/PDGFRbeta in human U87 cells assessed as induction of protein degradation by Western blot analysis; assay type: cell-based
Chain of von Hippel-Lindau disease tumor suppressor/Platelet-derived growth factor receptor beta (P09619 whole entry): as above
Chain of von Hippel-Lindau disease tumor suppressor/Platelet-derived growth factor receptor beta (P40337 whole entry): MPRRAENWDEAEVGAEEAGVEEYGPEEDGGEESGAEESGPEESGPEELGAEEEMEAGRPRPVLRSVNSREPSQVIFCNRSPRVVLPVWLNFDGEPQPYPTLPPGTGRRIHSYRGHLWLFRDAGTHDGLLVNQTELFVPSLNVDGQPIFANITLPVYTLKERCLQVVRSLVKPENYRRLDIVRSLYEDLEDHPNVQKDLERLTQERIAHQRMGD

U-87 MG = assay: Antiproliferative activity against human U87 cells; assay type: functional, cell-based, U-87MG ATCC
[11] = PROTAC activity at VHL/human p38alpha in MDA-MB-231 cells assessed as p38alpha degradation; assay type: cell-based
[12] = biological target: Protein cereblon/Tyrosine-protein kinase BTK (Homo sapiens, UniProt Q06187+Q96SW2); assay: PROTAC activity at BTK/CRBN in human MINO cells assessed as BTK protein degradation at 20 nM measured after 2 hrs by Western blotting analysis; assay type: cell-based
Chain of Protein cereblon/Tyrosine-protein kinase BTK (Q06187 whole entry): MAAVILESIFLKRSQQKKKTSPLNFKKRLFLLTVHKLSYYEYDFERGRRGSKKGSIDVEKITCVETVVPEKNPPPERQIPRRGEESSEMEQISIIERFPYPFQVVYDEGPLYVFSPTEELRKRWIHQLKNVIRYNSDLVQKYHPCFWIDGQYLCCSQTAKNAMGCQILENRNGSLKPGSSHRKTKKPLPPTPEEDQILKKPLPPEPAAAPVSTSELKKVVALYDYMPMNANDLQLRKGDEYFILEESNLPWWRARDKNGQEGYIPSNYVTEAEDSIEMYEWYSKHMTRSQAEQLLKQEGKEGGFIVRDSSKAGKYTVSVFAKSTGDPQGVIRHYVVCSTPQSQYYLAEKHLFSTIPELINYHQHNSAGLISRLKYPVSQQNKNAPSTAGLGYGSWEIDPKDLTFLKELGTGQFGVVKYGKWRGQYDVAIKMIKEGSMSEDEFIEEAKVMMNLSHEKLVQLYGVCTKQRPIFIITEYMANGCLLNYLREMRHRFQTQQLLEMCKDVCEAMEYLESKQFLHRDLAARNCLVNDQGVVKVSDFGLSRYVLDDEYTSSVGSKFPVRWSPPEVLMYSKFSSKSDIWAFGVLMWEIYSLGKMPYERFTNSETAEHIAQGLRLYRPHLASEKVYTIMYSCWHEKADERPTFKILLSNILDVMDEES
Chain of Protein cereblon/Tyrosine-protein kinase BTK (Q96SW2 whole entry): as the sequence (Q96SW2 whole entry) above

SMILES: COc1ccc(Br)cc1S(=O)(=O)Nc1cc2c(C)noc2cc1OCCOCCOCCOCCOCCOCCOc1cc2onc(C)c2cc1NS(=O)(=O)c1cc(Br)ccc1OC
IC50 (Hs-578T): 1360 nM
IC50 (CWR22R): 900 nM
IC50 (MV4-11): 450 nM
IC50 (LNCaP): 525 nM
IC50 (LNCaP C4-2B): 930 nM
IC50 (MOLM-13): 450 nM
Kd [1]: 741 nM

SMILES: Cc1cccc(CN2C(=O)c3cc(-c4nc(Nc5ccnc(C#CCCN(C)C)c5)ncc4C)cn3C[C@H]2C)n1
DC50 [2]: 102 nM
IC50 (HCT-116): 2100 nM
IC50 (A-375): > 30000 nM
DC50 [3]: 85 nM
IC50 (Calu-6): 15900 nM

SMILES: Cc1ncsc1-c1ccc(CNC(=O)[C@@H]2C[C@@H](O)CN2C(=O)[C@@H](NCCCCNC(=O)CNC(=O)c2cc(Oc3ccc(NC(=O)Nc4ccc(Cl)c(C(F)(F)F)c4)cc3)ccn2)C(C)(C)C)cc1
inhibition [9]: > 70%

SMILES: Cc1cccc(NC(=O)Nc2ccc(-c3cccc4c3c(N)nn4C(=O)CCCNC(=O)C3CC4CC3c3c4cnnc3-c3ccc(NC(=O)CCC(=O)N[C@H](C(=O)N4C[C@H](O)C[C@H]4C(=O)NCc4ccc(-c5scnc5C)cc4)C(C)(C)C)cc3)cc2)c1F (stereo not given in full)
DC50 [10]: 257 nM
IC50 (U-87 MG): > 100000 nM

Further lines, with some results ahead:

IC50 (MCF7 [4]): 87 nM
SMILES: Nc1nc2cc(-c3nn(Cc4cn(CCCCCC(=O)Nc5cccc6c5C(=O)N(C5CCC(=O)NC5=O)C6=O)nn4)c4ncnc(N)c34)ccc2o1 (stereo not given)
Activity (MCF7 [5]): 90%

IC50 (A549): 67000 nM
IC50 (NCI-H1975): 2100 nM
SMILES: COc1cc2ncnc(Nc3ccc(Cl)c(Cl)c3F)c2cc1Oc1ccc(NC(=O)CCCCCCC(=O)Nc2cccc3c2CN(C2CCC(=O)NC2=O)C3=O)cc1 (stereo not given)

IC50 (MCF7 [6]): 28.9 nM
IC50 (T47D): 41.7 nM
SMILES: Nc1nc(NC2CCC(C#Cc3ccc(C(=O)Nc4ccc5c(c4)CN(C4CCC(=O)NC4=O)C5=O)cc3)CC2)sc1C(=O)c1ccccc1[N+](=O)[O-] (stereo not given)

DC50 [7]: 1.8 nM
IC50 [8]: 140 nM
SMILES: COc1ccc(-c2c[nH]c3ccc(-c4ccc(N5CCN(C(=O)CCOCCNc6cccc7c6C(=O)N(C6CCC(=O)NC6=O)C7=O)CC5)cc4)cc23)cc1OC (stereo not given)

DC50 [11]: 11.6 nM
SMILES: Cc1ccc(C(=O)NCCCc2cn(CCCC(=O)NCCCCCC(=O)N[C@H](C(=O)N3C[C@H](O)C[C@H]3C(=O)N[C@@H](C)c3ccc(-c4scnc4C)cc3)C(C)(C)C)nn2)cc1-n1c(C)cc(OCc2ccc(F)cc2F)c(Br)c1=O

DC50 [12]: 3.8 nM
SMILES: Nc1ncnc2c1c(-c1ccc(Oc3ccccc3)cc1)nn2[C@@H]1CCCN(C(=O)CCCCCNc2ccc3c(c2)C(=O)N(C2CCC(=O)NC2=O)C3)C1 (stereo not given in full)

From ChEMBL document CHEMBL6153029, “Next-generation cancer therapeutics: PROTACs and the role of heterocyclic warheads in targeting resistance” (Eur J Med Chem, 2025)
